Experimental data from patent US4134792A, “Specific binding assay with an enzyme modulator as a labeling substance” (Miles Laboratories, Inc., priority 1976, dated 1979).
Like-named read-outs stand apart in the source and are kept apart here.

What was measured:
uricase = settings: approximation; competitive inhibitor; read-out: inhibitor constant (Ki); cited from earlier work
[1] = tested on: NAD-isocitric dehydrogenase; design: key: inhibitory or negative effectors are indicated by (-); stimulatory or positive effectors are indicated by (+); settings: yeast; cited from earlier work
[2] = tested on: fructose-1,6-diphosphatase; design: key: inhibitory or negative effectors are indicated by (-); stimulatory or positive effectors are indicated by (+); settings: frog muscle and rat liver; cited from earlier work
phosphorylase b = tested on: phosphorylase b; design: key: inhibitory or negative effectors are indicated by (-); stimulatory or positive effectors are indicated by (+); settings: rabbit muscle; cited from earlier work
glutamate dehydrogenase = tested on: glutamate dehydrogenase; design: key: inhibitory or negative effectors are indicated by (-); stimulatory or positive effectors are indicated by (+); settings: beef liver; cited from earlier work
L-threonine deaminase = tested on: L-threonine deaminase; design: key: inhibitory or negative effectors are indicated by (-); stimulatory or positive effectors are indicated by (+); settings: C. tetanomorphum; cited from earlier work
[3] = tested on: aspartate transcarbamylase; design: key: inhibitory or negative effectors are indicated by (-); stimulatory or positive effectors are indicated by (+); settings: E. coli; cited from earlier work
phosphofructokinase = settings: guinea pig heart; cited from earlier work
carbonic anhydrase [4] = assay: Esterase activities of carbonic anhydrase as a function of acetazolamide concentration (Example 2); assay type: biochemical, human; settings: for Hydrolysis Rate: pH 7.4, enzyme 0.013 IU
carbonic anhydrase [5] = assay: Competitive binding assay for dinitrophenyl (DNP) derivatives; carbonic anhydrase esterase readout (Example 5); assay type: biochemical, human; settings: for effect on the carbonic anhydrase reaction (in words): Table 4; for effect of antibody to DNP on inhibition (in words): presence of antibody to DNP
Experimental: (§1) Further dilutions were with water.
as §1
(4) Antibody to Dinitrophenyl (DNP) Reagent - Antisera raised against DNP was chromatographed at 4° C. on a 5 × 70 cm column of Sephadex G-200 (Pharmacia AB, Uppsala, Sweden) with 0.1 M Tris-HCl buffer, pH 8.2, containing 1 M sodium chloride.

homoserine dehydrogenase [6] = tested on: homoserine dehydrogenase; design: key: inhibitory or negative effectors are indicated by (-); stimulatory or positive effectors are indicated by (+); settings: R. rubrum; cited from earlier work
[7] = tested on: biosynthetic L-threonine deaminase; design: key: inhibitory or negative effectors are indicated by (-); stimulatory or positive effectors are indicated by (+); settings: E. coli K12 and yeast; cited from earlier work
lysine aspartokinase = tested on: lysine aspartokinase; design: key: inhibitory or negative effectors are indicated by (-); stimulatory or positive effectors are indicated by (+); settings: E. coli; cited from earlier work
homoserine dehydrogenase [8] = tested on: homoserine dehydrogenase; design: key: inhibitory or negative effectors are indicated by (-); stimulatory or positive effectors are indicated by (+); settings: E. coli; cited from earlier work
threonine aspartokinase = tested on: threonine aspartokinase; design: key: inhibitory or negative effectors are indicated by (-); stimulatory or positive effectors are indicated by (+); settings: E. coli; cited from earlier work
acetolactate synthetase = tested on: acetolactate synthetase; design: key: inhibitory or negative effectors are indicated by (-); stimulatory or positive effectors are indicated by (+); settings: E. coli; cited from earlier work
acetylcholinesterase = settings: cited from earlier work; for inhibition of acetylcholinesterase (in words): effective analogs of listed inhibitors
carbonic anhydrase [9] = assay: Direct binding assay for avidin; competitive binding assay for biotin; carbonic anhydrase esterase readout (Example 4); assay type: biochemical, human
From the text: as §1
The results of reaction mixtures 2 through 9 are presented in graphical form in FIG. 2 of the drawing.

[10] = tested on: nicotinamide adenine dinucleotide (NAD)-isocitric dehydrogenase; design: key: inhibitory or negative effectors are indicated by (-); stimulatory or positive effectors are indicated by (+); settings: N. crassa; cited from earlier work
[11] = tested on: UDP-N-acetyl-glucosamine-2-epimerase; design: key: inhibitory or negative effectors are indicated by (-); stimulatory or positive effectors are indicated by (+); settings: rat liver; cited from earlier work
deoxythymidine kinase = tested on: deoxythymidine kinase; design: key: inhibitory or negative effectors are indicated by (-); stimulatory or positive effectors are indicated by (+); settings: E. coli; cited from earlier work
[12] = tested on: deoxycytidylate aminohydrolase; design: key: inhibitory or negative effectors are indicated by (-); stimulatory or positive effectors are indicated by (+); settings: ass spleen; cited from earlier work
[13] = tested on: L-glutamine-D-fructose-6-phosphate transaminase; design: key: inhibitory or negative effectors are indicated by (-); stimulatory or positive effectors are indicated by (+); settings: rat liver; cited from earlier work

Compound: Clc1nc(Cl)c2[nH]c(Cl)nc2n1 [2,6,8-trichloropurine, 2,6,8-Trichloropurine]
- Ki (uricase): ~1000 nM

Compound: Nc1ncnc2c1ncn2[C@@H]1O[C@H](COP(=O)(O)O)[C@@H](O)[C@H]1O [5'-AMP]
- allosteric effector: inhibitory (-) or stimulatory (+) [1]: +
- allosteric effector: inhibitory (-) or stimulatory (+) [2]: -
- allosteric effector: inhibitory (-) or stimulatory (+) (phosphorylase b): +

Compound: Nc1ncnc2c1ncn2[C@@H]1O[C@H](COP(=O)(O)OP(=O)(O)O)[C@@H](O)[C@H]1O [ADP, addenosine diphosphate]
- allosteric effector: inhibitory (-) or stimulatory (+) (glutamate dehydrogenase): +
- allosteric effector: inhibitory (-) or stimulatory (+) (L-threonine deaminase): +

Compound: Nc1ncnc2c1ncn2[C@@H]1O[C@H](COP(=O)(O)OP(=O)(O)OP(=O)(O)O)[C@@H](O)[C@H]1O [ATP, adenosine triphosphate]
- allosteric effector: inhibitory (-) or stimulatory (+) [3]: +
- allosteric effector: inhibitory (-) or stimulatory (+) (phosphofructokinase): -
- allosteric effector: inhibitory (-) or stimulatory (+) (glutamate dehydrogenase): -
- allosteric effector: inhibitory (-) or stimulatory (+) (phosphorylase b): -

Compound: CC(=O)Nc1nnc(S(N)(=O)=O)s1 [Acetazolamide, 2-Acetylamino-1,3,4-thiadiazole-5-sulfonamide]
- inhibition of carbonic anhydrase (in words) (carbonic anhydrase [4]; Table 1): inhibited the enzyme carbonic anhydrase
- Hydrolysis Rate (carbonic anhydrase [4]; acetazolamide 0.144 μM with avidin 0.105 units/ml): 0.089 ΔOD348 /min/ml
- Hydrolysis Rate (carbonic anhydrase [4]; acetazolamide 0.144 μM, no avidin): 0.088 ΔOD348 /min/ml
- Hydrolysis Rate (carbonic anhydrase [4]; acetazolamide 0.288 μM, no avidin): 0.047 ΔOD348 /min/ml
- effect on the carbonic anhydrase reaction (in words) (carbonic anhydrase [5]): inhibited the carbonic anhydrase reaction
- Rate of Hydrolysis (carbonic anhydrase [5]; acetazolamide 0.216 μM with antibody to DNP 100 .infin.l/ml, mixture 3): 0.091 Increase in Absorbance per min at 348 nm
- Rate of Hydrolysis (carbonic anhydrase [5]; acetazolamide 0.216 μM, no antibody, mixture 5): 0.088 Increase in Absorbance per min at 348 nm
- effect of antibody to DNP on inhibition (in words) (carbonic anhydrase [5]): substantially unaffected by the presence of antibody to DNP

Compound: Nc1ccn([C@@H]2O[C@H](COP(=O)(O)OP(=O)(O)OP(=O)(O)O)[C@@H](O)[C@H]2O)c(=O)n1 [CTP, cytosine triphosphate]
- allosteric effector: inhibitory (-) or stimulatory (+) [3]: -

Compound: NS(=O)(=O)c1nnc(NC(=O)CCCCCNc2ccc([N+](=O)[O-])cc2[N+](=O)[O-])s1 [DNP-Modulator Conjugate, 6-(2,4-Dinitroanilino)-N-(5-sulfonamide-1,3,4-thiadiazo-2-yl) caproamide]
- Rate of Hydrolysis (carbonic anhydrase [5]; DNP-modulator conjugate 0.278 μM with antibody to DNP 100 .infin.l/ml, mixture 2): 0.108 Increase in Absorbance per min at 348 nm
- Rate of Hydrolysis (carbonic anhydrase [5]; DNP-modulator conjugate 0.278 μM, N-DNP-6-aminocaproate 1.8 μM, antibody to DNP 100 .infin.l/ml, mixture 7): 0.098 Increase in Absorbance per min at 348 nm
- Rate of Hydrolysis (carbonic anhydrase [5]; DNP-modulator conjugate 0.278 μM, no antibody, mixture 4): 0.074 Increase in Absorbance per min at 348 nm
- effect on the carbonic anhydrase reaction (in words) (carbonic anhydrase [5]): inhibited the carbonic anhydrase reaction
- effect of antibody to DNP on inhibition (in words) (carbonic anhydrase [5]): degree of inhibition being decreased by the presence of antibody to DNP

Compound: Nc1nc2c(ncn2[C@@H]2O[C@H](COP(=O)(O)OP(=O)(O)OP(=O)(O)O)[C@@H](O)[C@H]2O)c(=O)[nH]1 [GTP, guanosine triphosphate]
- allosteric effector: inhibitory (-) or stimulatory (+) (glutamate dehydrogenase): -

Compound: CC[C@H](C)[C@H](N)C(=O)O [L-isoleucine]
- allosteric effector: inhibitory (-) or stimulatory (+) (homoserine dehydrogenase [6]): +
- allosteric effector: inhibitory (-) or stimulatory (+) [7]: -

Compound: NCCCC[C@H](N)C(=O)O [L-lysine]
- allosteric effector: inhibitory (-) or stimulatory (+) (lysine aspartokinase): -

Compound: CSCC[C@H](N)C(=O)O [L-methionine]
- allosteric effector: inhibitory (-) or stimulatory (+) (homoserine dehydrogenase [6]): +

Compound: C[C@@H](O)[C@H](N)C(=O)O [L-threonine]
- allosteric effector: inhibitory (-) or stimulatory (+) (homoserine dehydrogenase [8]): -
- allosteric effector: inhibitory (-) or stimulatory (+) (homoserine dehydrogenase [6]): -
- allosteric effector: inhibitory (-) or stimulatory (+) (threonine aspartokinase): -

Compound: CC(C)[C@H](N)C(=O)O [L-valine]
- allosteric effector: inhibitory (-) or stimulatory (+) (acetolactate synthetase): +
- allosteric effector: inhibitory (-) or stimulatory (+) [7]: +

Compound: O=C(O)CCCCCNc1ccc([N+](=O)[O-])cc1[N+](=O)[O-] [N-DNP-6-aminocaproate]
- Rate of Hydrolysis (carbonic anhydrase [5]; N-DNP-6-aminocaproate 1.8 μM alone, no antibody, mixture 6): 0.154 Increase in Absorbance per min at 348 nm
- effect on the carbonic anhydrase reaction (in words) (carbonic anhydrase [5]): no substantial effect on the carbonic anhydrase reaction
- effect of DNP derivative on inhibition by DNP-modulator conjugate (in words) (carbonic anhydrase [5]; mixtures 2 and 7, antibody to DNP present): increased inhibition of the carbonic anhydrase reaction by the DNP-modulator conjugate

Compound: CN(C(=O)Oc1cccc([N+](C)(C)C)c1)c1ccc(N)cc1 [N-methyl-N-(p-aminophenyl) carbamate ester of m-(trimethylamino) phenol]
- inhibition of acetylcholinesterase (in words) (acetylcholinesterase): inhibited

Compound: O=C(O)CCCC[C@@H]1SC[C@@H]2NC(=O)N[C@@H]21 [biotin]
- relation of rate of hydrolysis to biotin (in words) (carbonic anhydrase [9]; mixtures 8, 10 and 11): inversely related to the amount present

Compound: O=C(O)CC(O)(CC(=O)O)C(=O)O [citrate]
- allosteric effector: inhibitory (-) or stimulatory (+) [10]: +

Compound: CC(=O)N[C@H]1[C@H]([C@H](O)[C@H](O)CO)OC(OP(=O)(O)OC[C@H]2O[C@@H](n3ccc(N)nc3=O)[C@H](O)[C@@H]2O)(C(=O)O)C[C@@H]1O (stereo partly shown) [cytosine monophosphate (CMP)-N-acetyl-neuraminic acid]
- allosteric effector: inhibitory (-) or stimulatory (+) [11]: -

Compound: Nc1ccn([C@H]2C[C@H](O)[C@@H](COP(=O)(O)OP(=O)(O)O)O2)c(=O)n1 [dCDP, deoxycytosine diphosphate]
- allosteric effector: inhibitory (-) or stimulatory (+) (deoxythymidine kinase): +

Compound: Nc1ccn([C@H]2C[C@H](O)[C@@H](COP(=O)(O)OP(=O)(O)OP(=O)(O)O)O2)c(=O)n1 [dCTP, deoxycytosine triphosphate]
- allosteric effector: inhibitory (-) or stimulatory (+) [12]: +

Compound: Cc1cn([C@H]2C[C@H](O)[C@@H](COP(=O)(O)OP(=O)(O)OP(=O)(O)O)O2)c(=O)[nH]c1=O [dTTP, deoxythymidine triphosphate]
- allosteric effector: inhibitory (-) or stimulatory (+) (deoxythymidine kinase): -
- allosteric effector: inhibitory (-) or stimulatory (+) [12]: -

Compound: CC(C)C[C@H](N)C(=O)O [leucine]
- allosteric effector: inhibitory (-) or stimulatory (+) (glutamate dehydrogenase): +

Compound: CSCC[C@H](N)C(=O)O [methionine]
- allosteric effector: inhibitory (-) or stimulatory (+) (glutamate dehydrogenase): +

Compound: C[N+](C)(C)c1ccc(N)cc1 [p-aminophenyl trimethylammonium ion]
- inhibition of acetylcholinesterase (in words) (acetylcholinesterase): inhibited

Compound: C[N+](C)(C)c1ccccc1 [phenyl trimethylammonium ion]
- Ki (acetylcholinesterase; approximation, competitive inhibitor, read-out: inhibitor constant (Ki)): ~1000 nM

Compound: NC(=O)C1=CN([C@@H]2O[C@H](COP(=O)(O)OP(=O)(O)OC[C@H]3O[C@@H](n4cnc5c(N)ncnc54)[C@H](O)[C@@H]3O)[C@@H](O)[C@H]2O)C=CC1 [reduced NAD]
- allosteric effector: inhibitory (-) or stimulatory (+) (glutamate dehydrogenase): -

Compound: N[C@@H](Cc1cc(I)c(Oc2cc(I)c(O)c(I)c2)c(I)c1)C(=O)O [thyroxine]
- allosteric effector: inhibitory (-) or stimulatory (+) (glutamate dehydrogenase): -

Compound: CC(=O)N[C@H]1[C@@H](OP(=O)(O)OP(=O)(O)OC[C@H]2O[C@@H](n3ccc(=O)[nH]c3=O)[C@H](O)[C@@H]2O)O[C@H](CO)[C@@H](O)[C@@H]1O [uridine diphosphate (UDP)-N-acetyl-glucosamine]
- allosteric effector: inhibitory (-) or stimulatory (+) [13]: -

Compound: Avidin: Lyophilized avidin (Sigma Chemical Co., St. Louis, Mo.)
- effect of avidin on inhibition by acetazolamide (in words) (carbonic anhydrase [4]; Table 1): no significant effect on such inhibition
- Hydrolysis Rate (carbonic anhydrase [4]; avidin 0.105 units/ml, acetazolamide 0.000 μM): 0.106 ΔOD348 /min/ml
- relation of rate of enzymatic hydrolysis to avidin (in words) (carbonic anhydrase [9]; constant level of biotin-modulator conjugate, mixtures 2-9): directly related to the amount of avidin present
